Reference: ChEMBL document CHEMBL4507305, “Data for DCP probe TP-024” (2021)
Active and inactive are the calls of the source. The calls are words filed in the database; no cut-off is given here.

How the values were obtained:
[1] = target: Receptor-interacting serine/threonine-protein kinase 1 (Homo sapiens) (UniProt Q13546); conditions: Compound concentration 1000.0 nM
[2] = target: Serine/threonine-protein kinase haspin (Homo sapiens) (UniProt Q8TF76); conditions: Compound concentration 1000.0 nM
[3] = target: Ephrin type-A receptor 6 (Homo sapiens) (UniProt Q9UF33); conditions: Compound concentration 1000.0 nM
[4] = target: 5-hydroxytryptamine receptor 1B (Homo sapiens) (UniProt P28222); conditions: Compound concentration 10.0 uM
[5] = target: Ribosomal protein S6 kinase alpha-5 (Homo sapiens) (UniProt O75582); conditions: Compound concentration 1000.0 nM
[6] = target: Bone morphogenetic protein receptor type-1B (Homo sapiens) (UniProt O00238); conditions: Compound concentration 1000.0 nM
[7] = target: Mu-type opioid receptor (Homo sapiens) (UniProt P35372); conditions: Compound concentration 10.0 uM
[8] = target: Atypical kinase COQ8B, mitochondrial (Homo sapiens) (UniProt Q96D53); conditions: Compound concentration 1000.0 nM
[9] = target: G-protein coupled receptor 52 (Homo sapiens, UniProt Q9Y2T5); test: CHO-based cAMP assay (human); assay type: functional
[10] = target: Cyclin-dependent kinase 2 (Homo sapiens) (UniProt P24941); conditions: Compound concentration 1000.0 nM
[11] = target: Tyrosine-protein kinase JAK1 (Homo sapiens) (UniProt P23458); conditions: Compound concentration 1000.0 nM
[12] = target: Tyrosine-protein kinase JAK1 (Homo sapiens) (UniProt P23458); conditions: Compound concentration 1000.0 nM; remark: listed apart in the source
[13] = tested on: Tyrosine-protein kinase ABL1 (Homo sapiens), P00519 [F317I]; conditions: Compound concentration 1000.0 nM
[14] = tested on: Receptor-type tyrosine-protein kinase FLT3 (Homo sapiens), P36888 [UNDEFINED MUTATION]; conditions: Compound concentration 1000.0 nM
[15] = target: Muscarinic acetylcholine receptor M2 (Homo sapiens) (UniProt P08172); conditions: Compound concentration 10.0 uM
[16] = target: Serine/threonine-protein kinase/endoribonuclease IRE1 (Homo sapiens) (UniProt O75460); conditions: Compound concentration 1000.0 nM
[17] = target: Dual specificity protein kinase CLK4 (Homo sapiens) (UniProt Q9HAZ1); conditions: Compound concentration 1000.0 nM
[18] = target: T1, G protein-coupled receptor (Rattus norvegicus, UniProt Q9WU09); test: CHO-based cAMP assay (rat)
[19] = target: Sodium-dependent dopamine transporter (Homo sapiens) (UniProt Q01959); conditions: Compound concentration 10.0 uM
[20] = target: Muscarinic acetylcholine receptor M3 (Homo sapiens) (UniProt P20309); conditions: Compound concentration 10.0 uM
[21] = target: T1, G protein-coupled receptor; test: cAMP increase in rat primary cultured striatal neurons

Chain of Tyrosine-protein kinase JAK1 (Homo sapiens) (P23458 whole entry): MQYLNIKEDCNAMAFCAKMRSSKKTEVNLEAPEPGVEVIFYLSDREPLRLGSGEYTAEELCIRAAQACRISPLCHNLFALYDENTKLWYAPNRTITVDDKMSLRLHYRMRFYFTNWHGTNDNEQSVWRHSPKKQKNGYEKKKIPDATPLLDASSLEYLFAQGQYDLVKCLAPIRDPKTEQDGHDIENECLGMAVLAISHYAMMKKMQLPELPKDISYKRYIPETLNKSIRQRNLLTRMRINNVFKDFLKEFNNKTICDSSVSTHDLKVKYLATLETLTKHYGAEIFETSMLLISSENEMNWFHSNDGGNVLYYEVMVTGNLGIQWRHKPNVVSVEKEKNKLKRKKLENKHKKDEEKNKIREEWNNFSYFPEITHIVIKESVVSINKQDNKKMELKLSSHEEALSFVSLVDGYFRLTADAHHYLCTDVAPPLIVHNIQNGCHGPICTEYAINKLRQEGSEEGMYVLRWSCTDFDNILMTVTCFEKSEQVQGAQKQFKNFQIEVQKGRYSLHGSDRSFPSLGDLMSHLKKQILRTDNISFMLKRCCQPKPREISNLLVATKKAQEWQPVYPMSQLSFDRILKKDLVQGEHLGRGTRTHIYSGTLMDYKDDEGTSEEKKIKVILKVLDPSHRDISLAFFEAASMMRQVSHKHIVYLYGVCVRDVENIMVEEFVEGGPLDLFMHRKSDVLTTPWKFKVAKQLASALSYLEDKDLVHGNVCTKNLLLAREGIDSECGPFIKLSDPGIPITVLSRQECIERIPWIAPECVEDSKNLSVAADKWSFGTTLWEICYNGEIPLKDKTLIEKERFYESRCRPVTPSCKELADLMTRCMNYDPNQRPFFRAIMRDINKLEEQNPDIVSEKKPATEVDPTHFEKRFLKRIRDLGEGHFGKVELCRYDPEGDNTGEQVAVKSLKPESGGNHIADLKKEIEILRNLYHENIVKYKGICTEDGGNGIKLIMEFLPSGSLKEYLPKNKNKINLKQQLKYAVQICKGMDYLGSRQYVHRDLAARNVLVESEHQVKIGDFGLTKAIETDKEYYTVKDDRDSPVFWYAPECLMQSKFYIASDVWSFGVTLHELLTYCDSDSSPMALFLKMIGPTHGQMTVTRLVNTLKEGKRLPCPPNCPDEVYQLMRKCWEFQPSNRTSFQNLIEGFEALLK
Chain of Muscarinic acetylcholine receptor M2 (Homo sapiens) (P08172 whole entry): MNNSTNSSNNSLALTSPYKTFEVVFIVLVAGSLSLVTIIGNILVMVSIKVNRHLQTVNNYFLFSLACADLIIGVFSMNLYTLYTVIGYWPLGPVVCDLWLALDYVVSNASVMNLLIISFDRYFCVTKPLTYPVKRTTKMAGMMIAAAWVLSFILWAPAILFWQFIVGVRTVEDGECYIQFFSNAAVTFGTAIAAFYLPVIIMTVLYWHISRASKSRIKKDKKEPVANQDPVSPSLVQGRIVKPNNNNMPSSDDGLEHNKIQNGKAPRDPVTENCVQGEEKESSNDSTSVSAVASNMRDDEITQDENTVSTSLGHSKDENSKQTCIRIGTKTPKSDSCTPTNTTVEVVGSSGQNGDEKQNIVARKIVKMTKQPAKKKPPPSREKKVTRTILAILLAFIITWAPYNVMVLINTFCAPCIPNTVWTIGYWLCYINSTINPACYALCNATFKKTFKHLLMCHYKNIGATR
Chain of Ephrin type-A receptor 6 (Homo sapiens) (Q9UF33 whole entry): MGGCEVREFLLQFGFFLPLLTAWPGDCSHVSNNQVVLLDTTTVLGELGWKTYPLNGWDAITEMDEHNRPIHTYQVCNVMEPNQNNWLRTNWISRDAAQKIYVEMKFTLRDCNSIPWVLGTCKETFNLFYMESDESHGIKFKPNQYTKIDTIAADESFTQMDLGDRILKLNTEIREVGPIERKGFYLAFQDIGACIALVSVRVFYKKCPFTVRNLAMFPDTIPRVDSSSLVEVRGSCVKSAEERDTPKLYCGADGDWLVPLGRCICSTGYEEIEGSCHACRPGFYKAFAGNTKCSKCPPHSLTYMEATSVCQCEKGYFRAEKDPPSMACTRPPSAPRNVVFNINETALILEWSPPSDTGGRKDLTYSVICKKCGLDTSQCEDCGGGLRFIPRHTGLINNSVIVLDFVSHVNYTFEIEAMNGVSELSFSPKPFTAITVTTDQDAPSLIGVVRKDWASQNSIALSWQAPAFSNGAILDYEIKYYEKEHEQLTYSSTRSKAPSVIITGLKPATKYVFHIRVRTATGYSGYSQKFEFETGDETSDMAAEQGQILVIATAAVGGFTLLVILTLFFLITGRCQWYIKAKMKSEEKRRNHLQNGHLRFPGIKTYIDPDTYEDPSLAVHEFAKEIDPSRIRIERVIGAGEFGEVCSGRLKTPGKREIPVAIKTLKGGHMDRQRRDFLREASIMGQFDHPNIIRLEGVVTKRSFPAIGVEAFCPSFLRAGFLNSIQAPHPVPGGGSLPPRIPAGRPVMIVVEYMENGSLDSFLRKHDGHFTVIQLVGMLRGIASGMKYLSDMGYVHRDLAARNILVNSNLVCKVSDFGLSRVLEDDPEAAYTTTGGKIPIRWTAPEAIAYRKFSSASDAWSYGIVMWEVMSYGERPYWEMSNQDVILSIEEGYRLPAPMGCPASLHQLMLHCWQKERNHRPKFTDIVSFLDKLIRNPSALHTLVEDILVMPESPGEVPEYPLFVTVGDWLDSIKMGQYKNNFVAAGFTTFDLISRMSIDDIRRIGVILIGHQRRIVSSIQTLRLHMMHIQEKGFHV
T1 sequence (Q9WU09 whole entry): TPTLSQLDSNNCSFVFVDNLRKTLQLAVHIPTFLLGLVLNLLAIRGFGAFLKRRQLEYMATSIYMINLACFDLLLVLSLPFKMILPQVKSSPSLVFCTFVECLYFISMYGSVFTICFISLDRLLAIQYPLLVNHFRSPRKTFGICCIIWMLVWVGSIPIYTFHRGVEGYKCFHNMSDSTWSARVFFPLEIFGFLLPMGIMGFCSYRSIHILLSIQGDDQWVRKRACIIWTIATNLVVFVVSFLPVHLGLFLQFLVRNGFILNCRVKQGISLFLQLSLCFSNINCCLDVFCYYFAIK
Chain of Serine/threonine-protein kinase haspin (Homo sapiens) (Q8TF76 whole entry): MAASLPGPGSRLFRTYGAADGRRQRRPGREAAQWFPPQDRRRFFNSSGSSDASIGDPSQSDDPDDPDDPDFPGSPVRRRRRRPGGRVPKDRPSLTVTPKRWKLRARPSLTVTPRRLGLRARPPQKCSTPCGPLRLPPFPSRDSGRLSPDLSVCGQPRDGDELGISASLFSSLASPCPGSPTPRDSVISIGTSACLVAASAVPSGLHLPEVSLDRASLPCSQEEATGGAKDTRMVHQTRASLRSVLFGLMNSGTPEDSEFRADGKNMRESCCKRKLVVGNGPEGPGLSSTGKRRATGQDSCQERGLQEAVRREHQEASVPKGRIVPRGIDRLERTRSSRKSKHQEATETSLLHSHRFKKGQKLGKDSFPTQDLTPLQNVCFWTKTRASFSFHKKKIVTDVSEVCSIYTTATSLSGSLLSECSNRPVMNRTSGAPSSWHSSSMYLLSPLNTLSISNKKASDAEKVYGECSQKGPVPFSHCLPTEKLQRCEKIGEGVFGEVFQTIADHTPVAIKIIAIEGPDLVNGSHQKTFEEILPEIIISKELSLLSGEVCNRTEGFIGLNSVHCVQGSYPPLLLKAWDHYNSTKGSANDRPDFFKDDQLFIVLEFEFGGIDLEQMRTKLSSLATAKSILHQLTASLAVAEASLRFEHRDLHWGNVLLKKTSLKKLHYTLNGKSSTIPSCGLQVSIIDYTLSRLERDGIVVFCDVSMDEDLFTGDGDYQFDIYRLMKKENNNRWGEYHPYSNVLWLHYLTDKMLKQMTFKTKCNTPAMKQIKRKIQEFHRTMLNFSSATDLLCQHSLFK
Chain of Serine/threonine-protein kinase/endoribonuclease IRE1 (Homo sapiens) (O75460 19-977 limits assumed): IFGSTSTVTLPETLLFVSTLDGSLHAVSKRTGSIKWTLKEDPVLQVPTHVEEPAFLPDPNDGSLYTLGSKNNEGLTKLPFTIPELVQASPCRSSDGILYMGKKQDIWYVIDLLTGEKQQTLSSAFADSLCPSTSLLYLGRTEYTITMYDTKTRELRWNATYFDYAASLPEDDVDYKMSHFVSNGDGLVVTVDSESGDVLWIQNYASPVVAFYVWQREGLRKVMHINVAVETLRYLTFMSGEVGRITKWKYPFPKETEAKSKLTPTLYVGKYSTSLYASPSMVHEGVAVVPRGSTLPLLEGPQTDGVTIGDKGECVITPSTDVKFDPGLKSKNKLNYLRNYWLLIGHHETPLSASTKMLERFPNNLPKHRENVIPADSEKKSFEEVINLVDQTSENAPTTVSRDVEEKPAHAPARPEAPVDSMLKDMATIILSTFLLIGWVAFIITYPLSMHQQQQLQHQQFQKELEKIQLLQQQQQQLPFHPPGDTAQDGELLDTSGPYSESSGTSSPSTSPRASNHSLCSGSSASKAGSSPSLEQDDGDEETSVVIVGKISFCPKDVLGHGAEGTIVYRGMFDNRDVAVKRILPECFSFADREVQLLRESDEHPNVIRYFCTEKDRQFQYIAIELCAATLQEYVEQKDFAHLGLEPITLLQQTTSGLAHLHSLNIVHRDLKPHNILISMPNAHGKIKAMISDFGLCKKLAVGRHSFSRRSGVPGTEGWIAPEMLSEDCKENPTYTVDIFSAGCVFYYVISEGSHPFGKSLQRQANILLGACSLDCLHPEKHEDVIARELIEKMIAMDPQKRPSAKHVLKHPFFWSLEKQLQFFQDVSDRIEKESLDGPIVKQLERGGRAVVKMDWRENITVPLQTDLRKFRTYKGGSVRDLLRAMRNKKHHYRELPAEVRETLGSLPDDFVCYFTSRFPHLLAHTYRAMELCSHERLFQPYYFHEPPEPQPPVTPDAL
Chain of G-protein coupled receptor 52 (Q9Y2T5 whole entry): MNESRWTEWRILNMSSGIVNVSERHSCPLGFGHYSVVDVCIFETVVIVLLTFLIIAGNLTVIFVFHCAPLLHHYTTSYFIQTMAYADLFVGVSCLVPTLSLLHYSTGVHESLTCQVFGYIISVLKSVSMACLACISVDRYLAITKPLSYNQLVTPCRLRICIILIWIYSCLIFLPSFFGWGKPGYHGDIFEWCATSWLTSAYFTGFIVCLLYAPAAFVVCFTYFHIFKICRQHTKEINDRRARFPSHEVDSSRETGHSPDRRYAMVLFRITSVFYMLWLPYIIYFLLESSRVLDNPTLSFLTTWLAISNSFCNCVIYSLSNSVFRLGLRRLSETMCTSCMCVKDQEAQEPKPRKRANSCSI

SMILES | residual activity [1] [%] | residual activity [2] [%] | residual activity [3] [%] | inhibition [4] [%] | residual activity [5] [%] | residual activity [6] [%] | inhibition [7] [%] | residual activity [8] [%] | residual activity [10] [%] | residual activity [11] [%] | residual activity [12] [%] | residual activity [13] [%] | residual activity [14] [%] | inhibition [15] [%] | residual activity [16] [%] | residual activity [17] [%] | other results
Cc1nc(Cc2cccc(C(F)(F)F)c2)sc1-c1ccc(C(N)=O)nc1 [TP-024n] | 91 | 100 | 96 | 7.99 | 83 | 94 | 5.75 | 100 | 100 | 86 | 92 | 83 | 100 | 12.8 | 100 | 83 | EC50 [9]: > 1 µM (not active)
Cc1cc(-n2nc(Cc3cc(F)cc(C(F)(F)F)c3)nc2C)ccc1C(N)=O [TP-024] | 90 | 100 | 100 | 13.8 | 88 | 100 | 0.37 | 100 | 100 | 100 | 100 | 85 | 100 | 5.69 | 100 | 96 | EC50 [18]: 0.134 µM (active); inhibition [19]: 7.33%; inhibition [20]: 1.72%; EC50 [21]: 0.151 µM (active)
